In patent US12691101B2, “Compound and method for preventing or treating of respiratory diseases comprising the same as an active ingredient” (YONSEI UNIVERSITY, UNIVERSITY - INDUSTRY FOUNDATION (UIF), priority 2019, dated 2026):

Assays:
[1] = test system: pendrin; test: Protein expression measurement in IL-4-treated HNE cells, pendrin; format: cell-based, human; details: long-term treatment
Procedure: CHO-K1 and HNE cells were lysed with a cytolytic buffer (50 mM Tris-HCl, pH 7.4, 1% Nonidet P-40, 0.25% sodium deoxycholate, 150 mM NaCl, 1 mM EDTA, 1 mM Na3VO4, and protease inhibiting mixture). The total cell lysates were under centrifugation at 15,000×g for 10 minutes at 4° C. to remove cellular debris and the same amount (50 μg protein or 5 μg protein/lane) of supernatant protein was isolated on 4-12% Tris-glycine precast gel (KOMA BIOTECH, Seoul, Korea) and transferred to PVDF membrane (Millipore, Billerica, MA, USA). The membrane was blocked with 5% fat-free skim milk in TBS containing 0.1% Tween 20 (TBST) or 5% bovine serum albumin in TBS at a room temperature for 1 hour. Then, the membrane was cultured at 4° C. overnight with a primary antibody against pendrin (sc-50346; Santa Cruz Biotechnology, Santa Cruz, CA, USA), NF-κB p65 (4764S; Cell Signaling Technology, Danvers, MA, USA), p-NF-κB p65 (3033S; Cell Signaling Technology), IkBα (9242S; Cell Signaling Technology), p-IkBα (9141S; Cell Signaling Technology), β-actin (sc-47778; Santa Cruz Biotechnology), or AN01 (ab64085; Abeam). After washing with 0.05% Tween 20 (TBST) in PBS, the blot was additionally cultured with a secondary antibody (Cell Signaling Technology, Danvers, MA) at a room temperature for 60 minutes. […]

[2] = test system: HNE cells; test: ASL and fluid meniscus volume measurement in HNE cells; format: cell-based, human
Procedure: The total volume of ASL and fluid meniscus, which is fluid with the cell culture insert wall, was measured by fluid absorption through filter paper. Whatman filter paper (10 mm diameter circle; GE Healthcare) was placed on the apical size of a 12-well transwell insert (Costar Co.) for 10 seconds. The absorption of the ASL and fluid meniscus was measured from the weight change of the filter paper. The weight of the filter paper was measured using an analysis scale (Sartorius BP61S; Sartorius AG, Gottingen, Germany).

[3] = test system: pendrin mRNA; test: Pendrin mRNA expression in LPS-treated hAEC, real-time PCR; format: cell-based, human
Procedure: The total messenger RNA (mRNA) was extracted using TRIzol reagent (Invitrogen, Carlsbad, CA, USA), and was reverse-transcribed using a random hexamer primer, an oligo(dT) primer and SuperScript® III reverse transcriptase (Invitrogen). Quantitative real-time PCR was performed using StepOnePlus Real-Time PCR system (Applied Biosystems, Foster City, CA, USA) and Thunderbird SYBR qPCR mix (Tokyobo, Osaka, Japan). Thermal cycling conditions included the initial stage at 95° C. for 5 minutes, and subsequent 40 cycles at 95° C. for 10 seconds, at 55° C. for 20 seconds and at 72° C. for […].

[4] = test system: LPS-induced acute lung injury mice; test: LPS-induced ALI in mouse model; format: in vivo
Procedure: Mice were slightly anesthetized by isoflurane inhalation (Abbott Laboratory), and were maintained in a supine position with the head raised. LPS (Escherichia coli, 0111: B4, Sigma) (10 mg/kg) in 50 μL PBS was administered by intranasal (i.n.) inhalation. As the control group, 50 μL sterile PBS was intranasally provided. With the aid of a microsyringe from Hamilton, the administration solution was gradually released into the nostrils. In case of the pretreatment model, F56 (10 mg/kg) in 50 μL DMSO was intraperitoneally (i.p) administered before 1 hour of LPS inhalation. In case of the post-treatment model, two doses of F56 were administered at 6 hours and 12 hours after LPS inhalation. The mice of the pretreatment group were euthanized and in 48 hours after LPS inhalation, the lung was harvested. In the post-treatment model, euthanasia and sample collection occurred 24 hours after LPS administration. For SCN^− experiment, after F56 treatment, […]
All mice were euthanized with fetal excessive amount of ketamine and xylazine. BALF was obtained by tracheal cannula using 1 mL sterile saline solution. BALF was centrifuged (4° C., 3000 rpm, 10 minutes) and the supernatant was stored at −80° C. for an additional analysis. The cell pellet was recomposed in 100 μL PBS, and used for the number of cells and cytospin sample. The total number of cells of each sample was determined using a hemocytometer (Marienfield), according to the manufacturer's protocol. Each sample in a 90 μL split amount was transferred to a slide chamber, and then the slide was inserted into the cytospin with outward facing. The slide was centrifuged at 800 rpm for 5 minutes, and then removed from the cell centrifuge, and dried before staining. The cytospin was prepared with a cell centrifuge (Shandon Cytospin 4 cytocentrifuge, Thermo Scientific, Waltham, MA, USA) and stained with Diff-Quik Stain Set (Dade Behring, Newark, DE, USA) to evaluate inflammation. The protein concentration of BAL supernatant was measured using BCA analysis (Thermo Fischer Scientific). 2 microliters of each sample and 198 μL of a working reagent were pipetted in a microplate well and completely mixed in a plate shaker for […]. After culturing at 37° C. for 30 minutes, the plate was cooled and the absorbance was read at 562 nm in a spectrophotometer.
The right lung was isolated and the pulmonary vasculature structure was flushed with saline solution under low pressure and stored at −80° C. before protein extraction. The left lung was inflated via tracheostomy with low-meting agarose (4%) in PBS at 25 cm H2O pressure until the pleural margin was sharpened. Then, the lung was excised and fixed overnight in 10% formaldehyde in PBS and embedded in paraffin for 5 μm sections. The left lung section was stained with H&E and subjectively evaluated with an optical microscope. Histopathology was reviewed in a blind method by two qualified researchers. Five easily identifiable pathological processes were scored using the weighted scale presented in the official ATS workshop report. Lung sections were processed using anti-rabbit SLC26A4 (ab98091, abcam) antibody for immunohistochemistry.
In the lung lysates, the level of macrophage inflammatory protein (MIP-2), interleukin-1β (IL-1β […] and tumor necrosis factor α (TNF-α) was measured using an ELISA kit (Millipore), according to the manufacturer's instructions.
The lung tissue was harvested and dissolved in a homogenization buffer (PRO-PREP™ extraction solution, iNtRON Biotechnology). The sample was centrifuged at 4° C. for 30 minutes at 13000 g. The supernatant protein concentration was determined by BCA analysis (Thermo Fisher Scientific). The same amount of protein was separated by SDS/PAGE and transferred to a nitrocellulose membrane. […]

[5] = Stability statements
[6] = post-treatment 10 mg/kg i.p. at 6 and 12 hours after LPS, 24 hours after LPS
[7] = pretreatment 10 mg/kg i.p. 1 hour before LPS, 48 hours after LPS, versus vehicle

## CC(C)(C)c1ccc(C2=NC(=Cc3cccs3)C(=O)O2)cc1 [F56, 2-(4-(tert-butyl)phenyl)-4-(thiophen-2-ylmethylene)oxazol-5(4H)-one]
[1]
  pendrin protein expression level: strongly reduced
[2]; IL-4-treated HNE cells expressing a mutant pendrin
  total volume of ASL and fluid meniscus: not changed
[2]; IL-4 and IL-13-treated HNE cells expressing wild-type pendrin
  total volume of ASL and fluid meniscus: hardly reduced
[3]
  mRNA expression level of pendrin: did not change
[4]; F56 pretreated versus vehicle (DMSO) after LPS
  level of pro-inflammatory cytokine in lung lysates (IL-1β, MIP-2, IL-6, TNF-α): reduced
[4]; F56 treatment before LPS
  Phospho-Iκ expression in lung lysates: significantly reduced
[4]; [6]
  BALF protein concentration: considerably reduced
  BALF total cell number: considerably reduced
  lung injury score: considerably reduced
[4]; [7]
  BAL protein concentration level: reduced
  BAL total cell number: reduced
  lung injury score: significantly reduced
[5]
  chemical stability: chemically stable
